From patent US20230277464A1, “TABLET DOSAGE FORMS FOR LIPID-BASED DRUG DELIVERY SYSTEMS” (ABITEC Corporation, priority 2022, published 2023)

Assay: Visual dissolution of ibuprofen in SEDDS pre-concentrate
Assay type: physicochemical
Protocol: The medium chain fatty acid esters and oil were weighed into a 2000 mL glass beaker. Subsequently, a magnetic stirrer was added to the beaker. The medium chain fatty acid esters and oil were blended to uniformity for 5 minutes with the magnetic stirrer set at 5. […] […] The pre-concentrate was observed 24 hours later to ensure that the ibuprofen was still dissolved.

Time ibuprofen remained dissolved in the pre-concentrate (room temperature): at least 24 hours | Ibuprofen dissolved in the pre-concentrate components (with heating): about 15.0%
Compound: CC(C)Cc1ccc(C(C)C(=O)O)cc1 (centres unmarked) [Ibuprofen, ibuprofen]
